Like-named read-outs stand apart in the source and are kept apart here.

The target of experiment [1] is T1, interaction between GMPPNP-bound recombinant K-Ras4B G12C mutant protein and cRAF RAS-binding domain (cRAF-RBD) (Homo sapiens, UniProt P01116, G12C).
T1 construct: His-tag (N)
Kind of experiment: Inhibitory activity on interaction between KRAS G12C and cRAF (Alpha technology). To be noted: Table 2. On the procedure: Interaction between recombinant K-Ras4B G12C mutant protein (amino acids 1-169, SEQ ID NO:2) and cRAF RAS-binding domain (cRAF-RBD, amino acids 50-132, Jena Biosciences GmbH) was measured using Alpha technology (PerkinElmer Inc.).
Recombinant KRAS G12C protein with an N-terminal His-tag was expressed in E. coli and purified by affinity chromatography. To prepare GTP-bound form and GDP-bound form of KRAS G12C protein, 50 μM KRAS G12C protein was incubated with 1 mM GMPPNP (Guanosine-5′-[(β,γ)-imido]triphosphate, Tetralithium salt) (Jena Bioscience GmbH) and 1 mM GDP, respectively, in a loading buffer (20 mM Tris-HCl (pH 7.5), 50 mM NaCl, 1 mM DTT and 2.5 mM EDTA) for 1 hour on ice. After the incubation, MgCl2 was added to a final concentration of 10 mM, followed by incubation at room temperature for 30 minutes. The mixture was allowed to pass through a NAP-5 column to remove free nucleotides and purified, and the resultant nucleotide-bound KRAS G12C protein was used for compound evaluation.
For the measurement of the inhibitory activity of compounds on interaction between KRAS G12C and cRAF-RBD, GMPPNP-bound KRAS G12C protein was incubated with various concentrations of compound in a reaction buffer (20 mM Tris-HCl (pH 7.5), 100 mM NaCl, 1 mM MgCl2, 1 mM TCEP, 0.1% Tween 20) at 25° C. for 1 hour. After the incubation, recombinant cRAF-RBD and Alpha detection reagents were added and incubated at room temperature for 1.5 hours for binding. Interaction of KRAS G12C and cRAF-RBD was monitored by measuring Alpha signal. Inhibition % was calculated using the signal from the reaction without test compound (DMSO control) as 0% inhibition and the signal from the reaction using GDP-bound KRAS G12C in place of GMPPNP-bound KRAS G12C as 100% inhibition. IC50 values were calculated from dose titration curve using curve fitting by XLfit software (IDBS).

The subject of a further experiment is MIA PaCa-2 cells. The experiment in a line: Growth inhibition activity on KRAS-G12C mutant cell line (CellTiter-Glo 3D). Format: cell-based, human. To be noted: MIA PaCa-2, 3-day culture with compound; Table 3. As for the experimental part:
MIA PaCa-2 cells (given by Sumitomo Dainippon Pharma Co., Ltd.), which are a KRAS-G12C mutant human pancreas cancer cell line, were suspended in a 10% fetal bovine serum-containing RPMI1640 medium (manufactured by Fujifilm Wako Pure Chemical Corporation). The cell suspension was seeded into each well of a 384-well U bottom microplate and cultured in an incubator containing 5% CO2 gas at 37° C. for 1 day. The compounds obtained in the “Preparation of Compounds” section were used as test compounds and were dissolved in DMSO, respectively, and each test compound was diluted with DMSO to give a concentration 500 times the final concentration. The resultant solution of the test compound in DMSO was diluted with the medium used for suspending cells and added to each well of the cell-culture plate to give a DMSO final concentration of 0.2%, followed by culture in an incubator containing 5% CO2 gas at 37° C. for another 3 days. The cell count after 3-day culture in the presence of the test compound was measured using CellTiter-Glo 3D Reagent (manufactured by Promega Corporation). All wells were added with CellTiter-Glo 3D Reagent and mixed for 10 minutes. 30 minutes after mixing, luminescence was measured by a plate reader. The growth inhibition rate was calculated from the following equation, and the concentration of the test compound at which 50% inhibition was achieved (IC50 (nM)) was determined.
[formula] • T: the emission intensity in a well into which a test compound was added. • C: the emission intensity in a well into which a test compound was not added.
(ATP-based viability assays read luminescence as a measure of living cells.)

Where [2] appears, read: IC50, GMPPNP-bound KRAS G12C incubated with compound 25° C. 1 hour.

T1 sequence (P01116 with tags, fused parts or gaps isoform P01116-2 G12C): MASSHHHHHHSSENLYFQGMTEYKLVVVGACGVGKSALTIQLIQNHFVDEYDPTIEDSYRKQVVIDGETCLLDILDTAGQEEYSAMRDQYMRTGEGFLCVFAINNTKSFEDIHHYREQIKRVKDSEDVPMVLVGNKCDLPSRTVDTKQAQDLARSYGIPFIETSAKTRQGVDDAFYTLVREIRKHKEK

As a reminder, the IC50 is the concentration that inhibits the measured activity by half. `CO[C@H]1CC[C@H](NC/C=C/C(=O)Nc2c(F)cc(C(=O)c3cn4c5c(cccc35)-c3c(cc(N5CCCC5=O)cc3C(F)(F)F)OCC4)cc2F)CC1` (single isomer, unassigned) [Example 5-2, (E)-N-(2,6-difluoro-4-(8-(2-oxopyrrolidin-1-yl)-10-(trifluoromethyl)-4,5-dihydrobenzo[7,8][1.4]oxazocino[6,5,4-hi]indole-1-carbonyl)phenyl)-4-(((1r,4t)-4-methoxycyclohexyl)amino)but-2-enamide]: the IC50 in experiment [1] (setting [2]) was greater than 6700 nM; in the experiment on MIA PaCa-2 cells, 1800 nM.

With `CO[C@H]1CC[C@H](NC/C=C/C(=O)Nc2c(F)cc(C(=O)c3cn4c5c(cccc35)-c3c(cccc3C(F)(F)F)OCC4)cc2F)CC1` (single isomer, unassigned) [Example 11-1], the IC50 is greater than 6700 nM in experiment [1] (setting [2]) and 7800 nM with MIA PaCa-2 cells.

For the compound `CO[C@H]1CC[C@H](NC/C=C/C(=O)Nc2c(F)cc(C(=O)c3cn4c5c(cccc35)-c3c(cccc3C(F)(F)F)OCC4)cc2F)CC1` (single isomer, unassigned) [Example 11-2], the concentration for half-maximal inhibition (IC50) in experiment [1] (setting [2]) was determined as 77 nM; in the experiment with MIA PaCa-2 cells, 91 nM.

Take `CO[C@H]1CC[C@H](NC/C=C/C(=O)Nc2c(F)cc(C(=O)c3cn4c5c(cccc35)-c3c(C(F)(F)F)cc5c(nc(C)n5C)c3OCC4)cc2F)CC1` (single isomer, unassigned) [Example 12-1, (E)-N-(4-(8,9-dimethyl-6-(trifluoromethyl)-12,13-dihydro-8H-imidazo[4″,5″:3′,4′]benzol[1′,2′:7,8][1,4]oxazocino[6,5,4-hi]indole-2-carbonyl)-2,6-difluorophenyl)-4-(((1r,4r)-4-methoxycyclohexyl)amino)but-2-enamide]: the half-inhibitory concentration (IC50) in experiment [1] (setting [2]) is 5 nM; with MIA PaCa-2 cells, 1 nM.

Consider `CO[C@H]1CC[C@H](NC/C=C/C(=O)Nc2c(F)cc(C(=O)c3cn4c5c(cccc35)-c3c(C(F)(F)F)cc5c(nc(C)n5C)c3OCC4)cc2F)CC1` (single isomer, unassigned) [Example 12-2, (E)-N-(4-(8,9-dimethyl-6-(trifluoromethyl)-12,13-dihydro-8H-imidazo[4″,5″:3′,4′]benzol[1′,2′:7,8][1,4]oxazocino[6,5,4-hi]indole-2-carbonyl)-2,6-difluorophenyl)-4-(((1r,4r)-4-methoxycyclohexyl)amino)but-2-enamide], for which the half-inhibitory concentration (IC50) in experiment [1] (setting [2]) was greater than 6700 nM; in the experiment with MIA PaCa-2 cells, 1600 nM.

Turning to `CO[C@H]1CC[C@H](NC/C=C/C(=O)Nc2c(F)cc(C(=O)c3cn4c5c(cccc35)-c3c(C)cc5c(nc(C)n5C)c3OCC4)cc2F)CC1` (single isomer, unassigned) [Example 14-1, (E)-N-(2,6-difluoro-4-(6,8,9-trimethyl-12,13-dihydro-8H-imidazo[4″,5″:3′,4′]benzo[1′,2′:7,8][1,4]oxazocino[6,5,4-hi]indole-2-carbonyl)phenyl)-4-(((11,4r)-4-methoxycyclohexyl)amino)but-2-enamide], the 50% inhibitory concentration (IC50) in experiment [1] (setting [2]) came to 9 nM; in the experiment with MIA PaCa-2 cells, 17 nM.

In the case of `CO[C@H]1CC[C@H](NC/C=C/C(=O)Nc2c(F)cc(C(=O)c3cn4c5c(cccc35)-c3c(C)cc5c(nc(C)n5C)c3OCC4)cc2F)CC1` (single isomer, unassigned) [Example 14-2, (E)-N-(2,6-difluoro-4-(6,8,9-trimethyl-12,13-dihydro-8H-imidazo[4″,5″:3′,4′]benzo[1′,2′:7,8][1,4]oxazocino[6,5,4-hi]indole-2-carbonyl)phenyl)-4-(((11,4r)-4-methoxycyclohexyl)amino)but-2-enamide], the IC50 in experiment [1] (setting [2]) was greater than 6700 nM; with MIA PaCa-2 cells it was 3700 nM.

As for `CO[C@H]1CC[C@H](NC/C=C/C(=O)Nc2c(F)cc(C(=O)c3cn4c5c(cccc35)-c3c(C)cc5c(nc(C)n5C)c3OCCC4)cc2F)CC1` (single isomer, unassigned) [Example 15-1, (E)-N-(2,6-difluoro-4-(6,8,9-trimethyl-13,14-dihydro-8H,12H-imidazo[4″,5″:3′,4′]benzo[1′,2″:8,9][1,5]oxazonino[7,6,5-hi]indole-2-carbonyl)phenyl)-4-(((1r,4r)-4-methoxycyclohexyl)amino)but-2-enamide], the results for the half-inhibitory concentration (IC50) (in experiment [1] (setting [2]); with MIA PaCa-2 cells) were 3900 nM and 2700 nM, respectively.

For the compound `CO[C@H]1CC[C@H](NC/C=C/C(=O)Nc2c(F)cc(C(=O)c3cn4c5c(cccc35)-c3c(C)cc5c(nc(C)n5C)c3OCCC4)cc2F)CC1` (single isomer, unassigned) [Example 15-2, (E)-N-(2,6-difluoro-4-(6,8,9-trimethyl-13,14-dihydro-8H,12H-imidazo[4″,5″:3′,4′]benzo[1′,2″:8,9][1,5]oxazonino[7,6,5-hi]indole-2-carbonyl)phenyl)-4-(((1r,4r)-4-methoxycyclohexyl)amino)but-2-enamide], the half-inhibitory concentration (IC50) in experiment [1] (setting [2]) turned out to be 35 nM; in the experiment on MIA PaCa-2 cells it was 27 nM.

In the case of `CO[C@H]1CC[C@H](NC/C=C/C(=O)Nc2c(F)cc(C(=O)c3cn4c5c(cccc35)-c3c(C)cc5c(nc(C)n5C)c3OCC3(CC3)C4)cc2F)CC1` (single isomer, unassigned) [Example 21-1, (E)-N-(2,6-difluoro-4-(6′,8′,9′-trimethyl-8′H, 12′H,14′H-spiro[cyclopropane-1,13-imidazo[4″,5″:3′,4′]benzo[1′,2:8,9][1,5]oxazonino[7,6,5-hi]indole]-2′-carbonyl)phenyl)-4-(((1r,4t)-4-methoxycyclohexyl)amino)but-2-enamide], the figures for the concentration for half-maximal inhibition (IC50) (in experiment [1] (setting [2]); with MIA PaCa-2 cells) were 44 nM and 22 nM, respectively.

On to `CO[C@H]1CC[C@H](NC/C=C/C(=O)Nc2c(F)cc(C(=O)c3cn4c5c(cccc35)-c3c(C)cc5c(nc(C)n5C)c3OCC3(CC3)C4)cc2F)CC1` (single isomer, unassigned) [Example 21-2, (E)-N-(2,6-difluoro-4-(6′,8′,9′-trimethyl-8′H, 12′H,14′H-spiro[cyclopropane-1,13-imidazo[4″,5″:3′,4′]benzo[1′,2:8,9][1,5]oxazonino[7,6,5-hi]indole]-2′-carbonyl)phenyl)-4-(((1r,4t)-4-methoxycyclohexyl)amino)but-2-enamide], for which the IC50 came to 2800 nM in experiment [1] (setting [2]) and 1500 nM in the experiment on MIA PaCa-2 cells.

In the case of `CO[C@H]1CC[C@H](NC/C=C/C(=O)Nc2c(F)cc(C(=O)c3cn4c5c(cccc35)-c3c(C)cc5c(nc(C)n5C)c3OC[C@H](C)C4)cc2F)CC1` (single isomer, unassigned) [Example 23], the IC50 in experiment [1] (setting [2]) came out at 19 nM; in the experiment on MIA PaCa-2 cells, 13 nM.

With `CO[C@H]1CC[C@H](NC/C=C/C(=O)Nc2c(F)cc(C(=O)c3cn4c5c(cccc35)-c3c(C)cc5c(nc(C)n5C)c3OC[C@H](C)C4)cc2F)CC1` (single isomer, unassigned) [Example 24], the IC50 worked out at 1800 nM in experiment [1] (setting [2]) and 1100 nM in the experiment with MIA PaCa-2 cells.

With `CO[C@H]1CC[C@H](NC/C=C/C(=O)Nc2c(F)cc(C(=O)c3cc4c5c(cccn35)-c3c(C(F)(F)F)cc5c(nc(C)n5C)c3OCC4)cc2F)CC1` (single isomer, unassigned) [Example 30-1, (E)-N-(4-(9,10-dimethyl-7-(trifluoromethyl)-13,14-dihydro-9H-imidazo[4″,5″:5′,6′]benzo[1′,2′:2,3]oxocino[4,5,6-hi]indolizine-2-carbonyl)-2,6-difluorophenyl)-4-(((1r,4r)-4-methoxycyclohexyl)amino)but-2-enamide], the IC50 in experiment [1] (GMPPNP-bound KRAS G12C incubated with compound 25° C. 1 hour, read-out: IC50) was 7 nM; with MIA PaCa-2 cells it was 3 nM.

These data come from patent US20240262842A1, “SMALL MOLECULE INHIBITORS OF KRAS G12C MUTANT” (Merck Sharp & Dohme LLC, priority 2021, published 2024).
